Reference: patent publication US20240317708A1, “INHIBITORS OF TRANSGLUTAMINASES” (ZEDIRA GMBH, priority 2021, published 2024)

Assays:
[1] = molecular target: T1, recombinant human transglutaminase 2 (Homo sapiens, UniProt P21980); experiment: Transglutaminase assay (dansylcadaverine incorporation into dimethylcasein, DCC-assay); format: biochemical; conditions: recombinant human TG2 10 nM, dansylcadaverine/dimethylcasein, 37° C.
T1 construct: purchased Zedira T022
T1 sequence (P21980 1-687): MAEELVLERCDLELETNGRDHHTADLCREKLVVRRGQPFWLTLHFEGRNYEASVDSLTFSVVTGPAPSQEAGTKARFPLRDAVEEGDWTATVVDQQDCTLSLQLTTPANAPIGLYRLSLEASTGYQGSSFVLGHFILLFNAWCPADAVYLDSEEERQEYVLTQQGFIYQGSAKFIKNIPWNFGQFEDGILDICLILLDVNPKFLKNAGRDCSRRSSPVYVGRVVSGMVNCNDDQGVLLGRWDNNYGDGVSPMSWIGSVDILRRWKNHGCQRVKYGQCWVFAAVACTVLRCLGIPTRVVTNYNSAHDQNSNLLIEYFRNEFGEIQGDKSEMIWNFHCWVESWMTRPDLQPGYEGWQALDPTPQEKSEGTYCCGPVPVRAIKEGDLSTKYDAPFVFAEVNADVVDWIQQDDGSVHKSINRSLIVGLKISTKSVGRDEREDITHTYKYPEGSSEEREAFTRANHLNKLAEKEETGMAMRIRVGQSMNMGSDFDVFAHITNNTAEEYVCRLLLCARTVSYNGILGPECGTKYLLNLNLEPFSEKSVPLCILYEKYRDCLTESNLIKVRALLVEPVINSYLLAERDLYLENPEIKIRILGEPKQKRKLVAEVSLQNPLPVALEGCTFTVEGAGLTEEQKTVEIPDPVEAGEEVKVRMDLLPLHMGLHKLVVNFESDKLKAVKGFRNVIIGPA
Experimental: For the determination of potency of inhibitors against tissue transglutaminase, the incorporation of dansylcadaverine into dimethylcasein (Zedira product T036, Lorand et al., Anal Biochem, 1971, 44:221-31) was measured using recombinant human transglutaminase 2 (Zedira Product T022).
The tissue transglutaminase is diluted in buffer (50 mM Tris-HCl, 7.5 mM CaCl2, 150 mM NaCl, pH=7.4). The final concentration of TG2 in the assay is 10 nM.
A 10 mM inhibitor stock solution is prepared in DMSO, and from this a serial 1:2-fold dilution series is prepared also in DMSO. Each of the initial dilutions is subsequently diluted 1:50-fold with buffer (50 mM Tris-HCl, 7.5 mM CaCl2, 150 mM NaCl, pH=7.4) to yield the final working dilutions containing 2% (v/v) DMSO.
15 μl of inhibitor working dilution are added per well of a 96 well microtiter plate. As control, 15 μl of a 2% (v/v) DMSO solution prepared using the buffer mentioned above are added per well.
Immediately before starting the assay, 600 μl transglutaminase working solution are added to 11.4 ml assay buffer (50 mM Tris-HCl, 10 mM CaCl2, 10 mM glutathione, 2.5% glycerol, 16.7 μM dansylcadaverine, 4 μM N,N-dimethylcasein, 200 mM NaCl, pH=8.0). 285 μl of this reaction mix are added per well containing the inhibitor.
Increase in fluorescence is measured using λex=330 nm and λem=500 nm at 37° C. for 30 min. A slope of the increase in fluorescence between 20 and 30 min is calculated for determination of the IC50 value (inhibitor concentration at which 50% of the initial activity is blocked).
Analysis of enzymatic activity is performed by calculation of the slope of an increase in fluorescence intensity. IC50 values are calculated by plotting the enzymatic activity (as percentage from control containing 2% DMSO instead of inhibitor) against the inhibitor concentration. IC50 is defined as the inhibitor concentration blocking 50% of initial enzyme activity.

[2] = Log D shake flask method (octanol / PBS pH 7.4, HPLC); format: physicochemical; conditions: octanol/phosphate-buffered saline (PBS); octanol / PBS pH 7.4, shake flask
Experimental: In order to classify the inventive compounds according to their lipophilicity, Log D values (distribution coefficient) were determined by means of the well-established shake flask method, measuring the partition of a compound between an octanol and phosphate-buffered saline (PBS, pH 7.4) by HPLC.

[3] = Caco-2 permeability assay (CacoReady kit); format: in vitro ADME; conditions: human
Experimental: Permeability coefficients (Papp values) were obtained from Caco-2 barrier studies predicting oral/intestinal bioavailability of the tested compounds. The assays were performed by using CacoReady™ ready-to-use kits from ReadyCell according to the manufacturers protocol.

IC50 [1] | logD [2] | Papp [3] | SMILES
25 to 250 nM | 1 to 3 | 1 to 10 ×10⁻⁶ cm/s | CCCCCNC(=O)/C=C/CC[C@H](NC(=O)c1nc2ccccc2s1)C(=O)Nc1cccn(CC(=O)NC23CC(C2)C3)c1=O [III-142, (S,E)-6-(benzo[d]thiazole-2-carboxamido)-N7-(1-(2-(bicyclo[1.1.1]pentan-1-ylamino)-2-oxoethyl)-2-oxo-1,2-dihydropyridin-3-yl)-N1-pentylheptyl-2-enediamide]
25 to 250 nM | 1 to 3 | < 1 ×10⁻⁶ cm/s | COC(=O)/C=C/CC[C@H](NC(=O)c1ccn(C)n1)C(=O)Nc1cccn(CC(=O)NC2C3CC4CC(C3)CC2C4)c1=O (stereo partly drawn) [III-129, (S,E)-methyl 7-(1-(2-(2-adamantylamino)-2-oxoethyl)-2-oxo-1,2-dihydropyridin-3-ylamino)-6-(1-methyl-1H-pyrazole-3-carboxamido)-7-oxohept-2-enoate]
25 to 250 nM | 3 to 5 | 1 to 10 ×10⁻⁶ cm/s | COC(=O)/C=C/CC[C@H](NC(=O)c1csc2ccccc12)C(=O)Nc1cccn(CC(=O)NC2C3CC4CC(C3)CC2C4)c1=O (stereo partly drawn) [III-107, (S,E)-methyl 6-(benzo[b]thiophene-3-carboxamido)-7-(1-(2-(2-adamantylamino)-2-oxoethyl)-2-oxo-1,2-dihydropyridin-3-ylamino)-7-oxohept-2-enoate]
25 to 250 nM | 1 to 3 | 1 to 10 ×10⁻⁶ cm/s | COC(=O)/C=C/CC[C@H](NC(=O)c1c(C)noc1C)C(=O)Nc1cccn(CC(=O)NC2C3CCCC2CC3)c1=O (stereo partly drawn) [III-135, (6S,E)-methyl 7-(1-(2-(bicyclo[3.2.1]octan-8-ylamino)-2-oxoethyl)-2-oxo-1,2-dihydropyridin-3-ylamino)-6-(3,5-dimethylisoxazole-4-carboxamido)-7-oxohept-2-enoate]
250 to 1500 nM | 1 to 3 | < 1 ×10⁻⁶ cm/s | Cn1ccnc1C(=O)N[C@@H](CC/C=C/C(=O)c1ccccc1)C(=O)Nc1cccn(CC(=O)NC23CC(C2)C3)c1=O [III-157, (S,E)-N-(1-(1-(2-(bicyclo[1.1.1]pentan-1-ylamino)-2-oxoethyl)-2-oxo-1,2-dihydropyridin-3-ylamino)-1,7-dioxo-7-phenylhept-5-en-2-yl)-1-methyl-1H-imidazole-2-carboxamide]
25 to 250 nM | 1 to 3 | < 1 ×10⁻⁶ cm/s | COC(=O)/C=C/CC[C@H](NC(=O)c1ccc2ccoc2c1)C(=O)Nc1cccn(CC(=O)NC2C3CC4CC2CC(C(N)=O)(C4)C3)c1=O (stereo partly drawn) [III-166, (S,E)-methyl 6-(benzofuran-6-carboxamido)-7-(1-(2-(4-aminoadamantane-1-carboxamide)-2-oxoethyl)-2-oxo-1,2-dihydropyridin-3-ylamino)-7-oxohept-2-enoate]
< 25 nM | 1 to 3 | 1 to 10 ×10⁻⁶ cm/s | COC(=O)/C=C/CC[C@H](NC(=O)c1cnnn1C)C(=O)Nc1cccn(CC(=O)NC23CC4(C)CC(C)(CC(C)(C4)C2)C3)c1=O [III-93, (S,E)-methyl 7-(1-(2-(3,5,7-trimethyl-1-adamantylamino)-2-oxoethyl)-2-oxo-1,2-dihydropyridin-3-ylamino)-6-(1-methyl-1H-1,2,3-triazole-5-carboxamido)-7-oxohept-2-enoate]
250 to 1500 nM | 1 to 3 | < 1 ×10⁻⁶ cm/s | COC(=O)/C=C/CC[C@H](NC(=O)c1snnc1CO)C(=O)Nc1cccn(CC(=O)NC2C3CC4CC(C3)CC2C4)c1=O (stereo partly drawn) [III-175, (S,E)-methyl 6-(4-(hydroxymethyl)-1,2,3-thiadiazole-5-carboxamido)-7-(1-(2-(2-adamantylamino)-2-oxoethyl)-2-oxo-1,2-dihydropyridin-3-ylamino)-7-oxohept-2-enoate]

More lines, now with the values behind:

SMILES | IC50 [1] | logD [2] | Papp [3]
COC(=O)/C=C/CC[C@H](NC(=O)c1sc(Br)cc1Br)C(=O)Nc1cccn(CC(=O)NC2C3CC4CC(C3)CC2C4)c1=O (stereo partly drawn) [III-15, (S,E)-methyl 6-(3,5-dibromothiophene-2-carboxamido)-7-(1-(2-(2-adamantylamino)-2-oxoethyl)-2-oxo-1,2-dihydropyridin-3-ylamino)-7-oxohept-2-enoate] | < 25 nM | 3 to 5 | 1 to 10 ×10⁻⁶ cm/s
COC(=O)/C=C/CC[C@H](NC(=O)c1oc2ccccc2c1C)C(=O)Nc1cccn(CC(=O)NC2CC3C=CC2C3)c1=O (stereo partly drawn) [III-66, (S,E)-methyl 7-(1-(2-(bicyclo[2.2.1]hept-5-en-2-ylamino)-2-oxoethyl)-2-oxo-1,2-dihydropyridin-3-ylamino)-6-(3-methylbenzofuran-2-carboxamido)-7-oxohept-2-enoate] | 25 to 250 nM | 1 to 3 | 1 to 10 ×10⁻⁶ cm/s
COC(=O)/C=C/CC[C@H](NC(=O)c1oc2ccccc2c1C)C(=O)Nc1cccn(CC(=O)NC23CC4CC(C2)CC(C(=O)OC)(C4)C3)c1=O [III-54, (S,E)-methyl 7-(1-(2-(3-methyladamantane-3-carboxylate-1-amino)-2-oxoethyl)-2-oxo-1,2-dihydropyridin-3-ylamino)-6-(3-methylbenzofuran-2-carboxamido)-7-oxohept-2-enoate] | 25 to 250 nM | 3 to 5 | < 1 ×10⁻⁶ cm/s
COC(=O)/C=C/CC[C@H](NC(=O)c1oc2ccccc2c1C)C(=O)Nc1cccn(CC(=O)NC23CC4CC(CC(O)(C4)C2)C3)c1=O [III-50, (S,E)-methyl 7-(1-(2-(3-hydroxyadamantan-1-amino)-2-oxoethyl)-2-oxo-1,2-dihydropyridin-3-ylamino)-6-(3-methylbenzofuran-2-carboxamido)-7-oxohept-2-enoate] | 25 to 250 nM | 1 to 3 | < 1 ×10⁻⁶ cm/s
CCC12CC3CC(C1)CC(NC(=O)Cn1cccc(NC(=O)[C@H](CC/C=C/C(=O)OC)NC(=O)c4oc5ccccc5c4C)c1=O)(C3)C2 [III-48, (S,E)-methyl 7-(1-(2-(3-ethyladamantan-1-amino)-2-oxoethyl)-2-oxo-1,2-dihydropyridin-3-ylamino)-6-(3-methylbenzofuran-2-carboxamido)-7-oxohept-2-enoate] | 25 to 250 nM | 3 to 5 | 1 to 10 ×10⁻⁶ cm/s
COC(=O)/C=C/CC[C@H](NC(=O)[C@H]1COCCN1)C(=O)Nc1cccn(CC(=O)NC2C3CC4CC(C3)CC2C4)c1=O (stereo partly drawn) [III-31, (S,E)-methyl 7-(1-(2-(2-adamantylamino)-2-oxoethyl)-2-oxo-1,2-dihydropyridin-3-ylamino)-6-((R)-morpholine-3-carboxamido)-7-oxohept-2-enoate] | 25 to 250 nM | 1 to 3 | < 1 ×10⁻⁶ cm/s
COC(=O)/C=C/CC[C@H](NC(=O)c1cnnn1C)C(=O)Nc1cccn(CC(=O)NC2C3CC4CC(C3)CC2C4)c1=O (stereo partly drawn) [III-22, (S,E)-methyl 7-(1-(2-(2-adamantylamino)-2-oxoethyl)-2-oxo-1,2-dihydropyridin-3-ylamino)-6-(1-methyl-1H-1,2,3-triazole-5-carboxamido)-7-oxohept-2-enoate] | < 25 nM | 1 to 3 | 1 to 10 ×10⁻⁶ cm/s
COC(=O)/C=C/CC[C@H](NC(=O)c1oc2ccccc2c1C)C(=O)Nc1cccn(CC(=O)NC2C3CCC2CC3)c1=O (stereo partly drawn) [III-65, (S,E)-methyl 7-(1-(2-(bicyclo[2.2.1]heptan-7-ylamino)-2-oxoethyl)-2-oxo-1,2-dihydropyridin-3-ylamino)-6-(3-methylbenzofuran-2-carboxamido)-7-oxohept-2-enoate] | < 25 nM | 3 to 5 | 1 to 10 ×10⁻⁶ cm/s
